Blank lines part the entries; values can stand above or below the molecule they belong to.
What was measured:
[1] = system: H1299 cells expressing A138V; assay: ChIP of p53 DNA binding in H1299 expressing A138V shifted to 32° C. with CHX or 17-AAG; type: cell-based, human; design: rescue of p53 DNA binding at 32° C. (ChIP): dose or concentration left out as unconfirmed
Experimental: FIGS. 4A to 4E show molecular chaperones mediate refolding of stockpiled ts p53 at permissive temperature. […] P53 binding to p21 promoter was determined by ChIP. […] P53 DNA binding was determined by ChIP. FIG. 4C is a diagram of cell-free luciferase fragment complementation assay that detects the DNA binding of p53-Cluc fusion protein. ZF-Nluc and p53-Cluc binding to DNA containing ZF and p53 sites juxtapose Nluc and Cluc domains to restore luciferase activity. […] The heat-treated p53-Cluc proteins were mixed with ZF-Nluc, DNA, ATP, E. coli extract containing 5 chaperones and incubated for 3 hrs at 23° C. P53 DNA binding was detected by measuring luciferase activity. The results are average of 3 experiments (mean±SD). **p<0.01.
Chromatin immunoprecipitation (ChIP). ChIP assay was performed using standard procedure. Crosslinked p53-DNA complexes were immunoprecipitated with DO-1 antibody. Samples were subjected to SYBR Green real-time PCR analysis using forward and reverse primers for the p53 binding sites in the p21 promoter ([…] (SEQ ID NO:7) and […] (SEQ ID NO:8)), and PUMA promoter ([…] (SEQ ID NO:9) and […] (SEQ ID NO:10)).

[2] = Pharmacological induction of hypothermia by CHA in nude mice; type: in vivo
Experimental: FIGS. 6A to 6D show hypothermia inhibits the growth of tumors expressing ts p53. […] One group of mice was treated with 32° C. hypothermia in 24 hr×6 format. Control animals (37° C.) were not treated. […] Tumor size (mean±SD) was plotted over time.
Animal experiment. Animal experiments were reviewed and approved by the University of South Florida IACUC. Athymic female nude mice (6-week old, Athymic Nude-Foxn1nu, Envigo) were injected subcutaneously with 0.1 ml 1:1 slurry of Matrigel (VWR 47743-715) and 1×10^7 cells in PBS at each site. The inoculated mice were housed in a cabinet set to 28° C. (ARIA BIO-C36 ventilated cabinet, TECNIPLAST) to ensure that tumors develop at ˜37° C. Each mouse received injections at 2 sites, tumors formed at >80% of sites injected with GA10 cells. N^6-cyclohexyladenosine (CHA, Sigma C9901) was dissolved at 20 mg/ml in 25% (2-Hydroxypropyl)-β-cyclodextrin (w/v, Sigma H107) and heated at 65° C. for 10 min to ensure dissolution. Camptothecin (CPT, Santa Cruz Biotechnology sc-200871B) was freshly dissolved in 1 N NaOH, diluted to ˜0.5 mg/ml with saline, and adjusted to pH10 using HCl. To induce hypothermia, 0.2 ml saline+10% glucose containing CHA and CPT was administered by intra peritoneal injection to provide a CHA dosage of 10 mg/kg body weight and CPT (when indicated) dosage of 1.5 mg/kg body weight. The mice were kept in the 28° C. cabinet and monitored using infrared thermal imaging camera (FLIR ONE Pro, FLIR® Systems, Inc.) to verify that body temperature was maintained at ˜32° C. A second injection of CHA (10 mg/kg) in 0.4 ml saline+10% glucose was given after 10 hours to maintain hypothermia for ˜24 hours. A third injection of CHA (10 mg/kg) in 0.4 ml saline+10% glucose was given after 10 hours to maintain hypothermia for ˜32 hours. After regaining normal body temperature, the mice were kept for 2-4 days in the 28° C. cabinet to allow weight recovery (˜10% weight loss occurred during hypothermia due to loss of mobility and food intake). The treatment was repeated 4-5 times (24 hr×6 or 32 hr×5 format). In each subsequent round CHA dosage was increased by 25% to compensate for the gradual loss of sensitivity.
Pharmacological induction of hypothermia. To test the effect of hypothermia on tumors with ts p53, the adenosine A1 receptor (A1AR) agonist CHA ([…]) was used to lower mouse body temperature to 32° C. for 24-48 hours. […] Intraperitoneal injection of CHA caused body temperature to decrease to ˜3° C. above the environment in ˜10 minutes, consistent with the induction of hibernation-like response in rats and mice by A1AR agonists (Tupone D, et al. J Neurosci 2013 33:14512-25; Futatsuki T, et al. Sci Rep 2018 8:2717). […] This was achieved by keeping the CHA-treated mice in a 28° C. environment (FIG. 6A). […]

[3] = system: UC3 bladder cancer cells; assay: UC3 colony formation after 2 hrs drug treatment, washout and 32° C. or 37° C. incubation; type: cell-based; conditions: 2 hrs drug at 37° C., washout, 32° C. vs 37° C. 24 hrs, then 7 days at 37° C.
Experimental: FIGS. 17A and 17B show hypothermia treatment given after chemotherapy enhances drug response in bladder cancer. […] The washed cells were incubated at 32° C. or 37° C. for 24 hrs, followed by 7 days at 37° C. and crystal violet staining for colony formation.
Standard bladder intravesical chemotherapy involves 1-2 hr irrigation with drugs at 37° C. or 42° C. The effect of treating cells with 32° C. hypothermia after chemotherapy was tested to avoid interference with drug uptake. TS mutant p53 activation peaks 6-8 hrs after shift to 32° C., which should cooperate with chemotherapy-induced DNA damage to induce cell death. […] Saline irrigation of up to 24 hrs is routinely performed after transurethral resection of bladder tumor (TURBT) procedure to prevent clotting. Therefore, irrigation with cooled saline after intravesical chemotherapy is expected to be well-tolerated and safe.

[4] = nude mice, intraperitoneal injection

Structure (SMILES): C=CCNC1=C2C[C@@H](C)C[C@H](OC)[C@H](O)[C@@H](C)/C=C(\C)[C@H](OC(N)=O)[C@@H](OC)/C=C\C=C(/C)C(=O)NC(=CC1=O)C2=O [17-AAG]
p53 activation at 32° C. (ChIP DNA binding) ([1]; 50 μM 17-AAG): blocked p53 activation

weight loss during hypothermia ([2]; CHA 10 mg/kg injections, due to loss of mobility and food intake): ~10%
Structure (SMILES): OC[C@H]1O[C@@H](n2cnc3c(NC4CCCCC4)ncnc32)[C@H](O)[C@@H]1O [CHA, N^6-cyclohexyladenosine]
duration body temperature maintained at 32° C. ([2]; multiple injections of CHA, 28° C. environment): 24 to 32 h
body temperature after CHA injection [2, 4]: ~3 °C above the environment
time for body temperature decrease [2, 4]: ~10 min

Structure (SMILES): COc1cccc2c1C(=O)c1c(O)c3c(c(O)c1C2=O)C[C@@](O)(C(=O)CO)C[C@@H]3O[C@H]1C[C@H](N)[C@H](O)[C@H](C)O1 [Doxorubicin]
effect of 32° C. for 24 hrs after drug on growth inhibition (colony formation) [3]: modestly increased

Structure (SMILES): Nc1ccn([C@@H]2O[C@H](CO)[C@@H](O)C2(F)F)c(=O)n1 [Gemcitabine]
effect of 32° C. for 24 hrs after drug on growth inhibition (colony formation) [3]: modestly increased

Structure (SMILES): C[C@@H]1C[C@@H]([C@H](O)CC2CC(=O)NC(=O)C2)C(=O)[C@@H](C)C1 [cycloheximide]
rescue of p53 DNA binding at 32° C. (ChIP) ([1]; cycloheximide (CHX)): did not prevent the rescue of DNA binding

From patent publication US20240307220A1, “Combination Therapy to Treat Temperature Sensitive Mutant Tumors” (H. LEE MOFFITT CANCER CENTER AND RESEARCH INSTITUTE INC., priority 2021, published 2024)
